Source: patent US10202377B2, “3-(1H-benzo[D]imidazol-2-yl)-1H-pyrazolo[3,4-C]pyridine and therapeutic uses thereof” (Samumed, LLC, priority 2014, dated 2019)

Assays:
[1] = test system: primary human mesenchymal stem cells (hMSCs); assay: Chondrogenesis induction in primary human mesenchymal stem cells (nodule imaging, Rhodamine B/Nile Red); type: cell-based; conditions: 6 days, dose at which the compound reached maximum chondrogenesis activity, dose range 10-2700 nM
Procedure: The above synthesized compounds were screened using primary human mesenchymal stem cells (hMSCs) to determine their ability to induce chondrogenesis (process by which cartilage is developed).
Human Mesenchymal Stem Cell Culture: Primary human mesenchymal stem cells (hMSCs) were purchased from Lonza (Walkersville, Md.) and expanded in Mesenchymal Stem Cell Growth Media (Lonza). Cells between passage 3 and 6 were used for the experiments.
Compound Screening: Each compound was dissolved in DMSO as a 10 mM stock and used to prepare compound source plates. Serial dilution (1:3, 6-point dose-response curves from 2700 nM to 10 nM) and compound transfer was performed using the ECHO 550 (Labcyte, Sunnyvale, Calif.) into 96-well clear bottom assay plates (Greiner Bio-One) with appropriate DMSO backfill for a final DMSO concentration of 0.03%. hMSCs were plated at 20,000 cells/well in 250 μL/well Incomplete Chondrogenic Induction Medium (Lonza; DMEM, dexamethasone, ascorbate, insulin-transferrin-selenium [ITS supplement], gentamycin-amphotericin [GA-1000], sodium pyruvate, proline and L-glutamine). TGF-β3 (10 ng/mL) was used as a positive control for differentiation while negative control wells were treated with 75 nL DMSO for normalization and calculating EC50 values. Cells were incubated at 37° C. and 5% CO2 for 6 days. To image chondrogenic nodules, the cells were fixed using 4% formaldehyde (Electron Microscopy Sciences), and stained with 2 μg/mL Rhodamine B (Sigma-Aldrich) and 20 μM Nile Red (Sigma-Aldrich) [Johnson K., et. al, A Stem Cell-Based Approach to Cartilage Repair, Science, (2012), 336(6082), 717-721]. The nodules imaged (4 images per well at 4× magnification) by excitation at 531 nm and emission at 625 nm and quantified using the CellInsight CX5 (Thermo Scientific). Number of nodules in each well was normalized to the average of 3 DMSO treated wells on the same plate using Excel (Microsoft Inc.). The normalized averages (fold change over DMSO) of 3 replicate wells for each compound concentration were calculated. Due to solubility limitations of some of the compounds, curve fitting was incomplete leading to inaccurate EC50 determinations.
Using TGF-β3 as a positive control, the concentration of test compounds required to induce equivalent levels of chondrogenesis is reported. In addition, the maximum activity of each compound and the respective dose that each compound reached maximum chondrogenesis activity is reported.

[2] = test system: primary human fibroblasts derived from IPF patients (LL29 cells); assay: Inhibition of fibrosis (αSMA staining) in TGF-β1-treated primary human fibroblasts from IPF patients; type: cell-based; conditions: Fibroblast, 96 h, TGF-β1 20 ng/mL, 4 days
Summary of the method: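 LL29 IPF fibroblasts in F12 with 1% FBS were stimulated with TGF-β1 (20 ng/mL) and incubated 4 days at 37 °C. SYTOX-positive dead cells were excluded, and αSMA-positive cells were counted by immunostaining as % of total. Values were normalized to TGF-β1/DMSO wells on the same plate, and EC50 derived.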

[3] = test system: Wnt activity (Sp5-Luc reporter, SW480 colon carcinoma cells); assay: Sp5-Luc Wnt reporter gene screening assay in SW480 colon carcinoma cells; conditions: Homo sapiens
Procedure: The screening assay for Wnt activity is described as follows.
SW480 colon carcinoma cells were transduced with a lentiviral vector expressing luciferase with a human Sp5 promoter consisting of a sequence of eight TCF/LEF binding sites. SW480 cells stably expressing the Sp5-Luc reporter gene and a hygromycin resistance gene were selected by treatment with 150 μg/ml of hygromycin for 7 days. These stably transduced SW480 cells were expanded in cell culture and used for all further screening activities. For Sp5-Luc reporter gene assays, the cells were plated at 10,000 cells/well in 96-well plates with growth medium containing 10% fetal calf serum and incubated overnight at 37° C. and 5% CO2. […] Compound transfer from serially diluted source plates to assay plates containing the cells was accomplished using a pintool (Multimek 96, Beckman equipped with V&P Scientific FP1S50H pins) based liquid handling protocol. This protocol used a slotted pin to transfer 50 nl of compound from a source plate well to an assay plate well containing 50 μl of cells in growth medium. […] Control wells received 50 nl of DMSO treatment for normalization and calculating IC50 values. The treated cells were incubated at 37° C. and 5% CO2 for an additional forty-two hours. Following incubation, the growth medium was removed and 50 μl of BrightGlo luminescence reagent (Promega) was added to each well of the 96-well assay plates. The plates were placed on an orbital shaker for 5 min and then luminescence was quantified on the Victor3 (Perkin Elmer) plate reader.

Structure (SMILES) | Conc (nM) of Max. activity [1] [nM] | EC50 [2] [nM] | IC50 [3] [nM]
CN(C)Cc1cncc(-c2cc3c(-c4nc5c(-c6cccc(F)c6)cccc5[nH]4)n[nH]c3cn2)c1 [Compound 13, 1-(5-(3-(4-(3-Fluorophenyl)-1H-benzo[d]imidazol-2-yl)-1H-pyrazolo[3,4-c]pyridin-5-yl)pyridin-3-yl)-N,N-dimethylmethanamine] | 300 | 9 | 19.1
CC(C)(C)C(=O)Nc1cncc(-c2cc3c(-c4nc5c(-c6ccc(F)cc6)cccc5[nH]4)n[nH]c3cn2)c1 [Compound 34, N-(5-(3-(4-(4-Fluorophenyl)-1H-benzo[d]imidazol-2-yl)-1H-pyrazolo[3,4-c]pyridin-5-yl)pyridin-3-yl)pivalamide] | 2700 | 47 | 31.2
Nc1cncc(-c2cc3c(-c4nc5c(-c6ccccc6F)cccc5[nH]4)n[nH]c3cn2)c1 [Compound 55, 5-(3-(4-(2-Fluorophenyl)-1H-benzo[d]imidazol-2-yl)-1H-pyrazolo[3,4-c]pyridin-5-yl)pyridin-3-amine] | 900 | 9 | 19.5
c1cncc(-c2cc3c(-c4nc5c(-c6cccnc6)cccc5[nH]4)n[nH]c3cn2)c1 [Compound 82, 5-(Pyridin-3-yl)-3-(4-(pyridin-3-yl)-1H-benzo[d]imidazol-2-yl)-1H-pyrazolo[3,4-c]pyridine] | 30 | 9 | 4.5
CN(C)Cc1cncc(-c2cc3c(-c4nc5c(N6CCCCC6)cccc5[nH]4)n[nH]c3cn2)c1 [Compound 169, N,N-dimethyl-1-(5-(3-(4-(piperidin-1-yl)-1H-benzo[d]imidazol-2-yl)-1H-pyrazolo[3,4-c]pyridin-5-yl)pyridin-3-yl)methanamine] | 900 | 9 | 28.3
Cc1cn(-c2cccc3[nH]c(-c4n[nH]c5cnc(-c6cncc(NC(=O)CC(C)C)c6)cc45)nc23)cn1 [Compound 184, 3-Methyl-N-(5-(3-(4-(4-methyl-1H-imidazol-1-yl)-1H-benzo[d]imidazol-2-yl)-1H-pyrazolo[3,4-c]pyridin-5-yl)pyridin-3-yl)butanamide] | 30 | 277 | 55.1
CN1CCN(c2cccc3[nH]c(-c4n[nH]c5cnc(-c6cncc(N)c6)cc45)nc23)CC1 [Compound 211, 5-(3-(4-(4-Methylpiperazin-1-yl)-1H-benzo[d]imidazol-2-yl)-1H-pyrazolo[3,4-c]pyridin-5-yl)pyridin-3-amine] | 2700 | 613 | 96.8
c1cncc(-c2cc3c(-c4nc5ccccc5[nH]4)n[nH]c3cn2)c1 [Compound 238, 3-(1H-Benzo[d]imidazol-2-yl)-5-(pyridin-3-yl)-1H-pyrazolo[3,4-c]pyridine] | 100 | 57 | 7.7
CC(C)C(=O)Nc1cncc(-c2cc3c(-c4nc5c(-c6ccsc6)cccc5[nH]4)n[nH]c3cn2)c1 [Compound 269, N-(5-(3-(4-(Thiophen-3-yl)-1H-benzo[d]imidazol-2-yl)-1H-pyrazolo[3,4-c]pyridin-5-yl)pyridin-3-yl)isobutyramide] | 900 | 49 | 4.2
CC(C)CC(=O)Nc1cncc(-c2cc3c(-c4nc5c(-c6ccoc6)cccc5[nH]4)n[nH]c3cn2)c1 [Compound 288, N-(5-(3-(4-(Furan-3-yl)-1H-benzo[d]imidazol-2-yl)-1H-pyrazolo[3,4-c]pyridin-5-yl)pyridin-3-yl)-3-methylbutanamide] | 10 | 9 | 6.8
CN(C)CCNc1cc(F)cc(-c2cccc3[nH]c(-c4n[nH]c5cnc(-c6cncc(CNCC7CCCC7)c6)cc45)nc23)c1 [Compound 466, N^1-(3-(2-(5-(5-(((Cyclopentylmethyl)amino)methyl)pyridin-3-yl)-1H-pyrazolo[3,4-c]pyridin-3-yl)-1H-benzo[d]imidazol-4-yl)-5-fluorophenyl)-N^2,N^2-dimethylethane-1,2-diamine] |  | 308 | 466
Fc1cccc(-c2cccc3[nH]c(-c4n[nH]c5cnc(C6CCNCC6)cc45)nc23)c1 [Compound 937, 3-(4-(3-Fluorophenyl)-1H-benzo[d]imidazol-2-yl)-5-(piperidin-4-yl)-1H-pyrazolo[3,4-c]pyridine] |  | 9990 | 3160
CN(C)CCOc1cncc(-c2cc3c(-c4nc5c(-c6cccc(F)c6)cccc5[nH]4)n[nH]c3cn2)c1 [Compound 947, 2-((5-(3-(4-(3-Fluorophenyl)-1H-benzo[d]imidazol-2-yl)-1H-pyrazolo[3,4-c]pyridin-5-yl)pyridin-3-yl)oxy)-N,N-dimethylethan-1-amine] |  | 9990 | 463
COc1cncc(-c2cc3c(-c4nc5c(-c6cccc(F)c6)cccc5[nH]4)n[nH]c3cn2)c1 [Compound 948, 3-(4-(3-Fluorophenyl)-1H-benzo[d]imidazol-2-yl)-5-(5-methoxypyridin-3-yl)-1H-pyrazolo[3,4-c]pyridine] |  | 72 | 33
Oc1cncc(-c2cc3c(-c4nc5c(-c6cccc(F)c6)cccc5[nH]4)n[nH]c3cn2)c1 [Compound 949, 5-(3-(4-(3-Fluorophenyl)-1H-benzo[d]imidazol-2-yl)-1H-pyrazolo[3,4-c]pyridin-5-yl)pyridin-3-ol] |  | 9990 | 29
Fc1cccc(-c2cccc3[nH]c(-c4n[nH]c5cnc(-c6ccncc6)cc45)nc23)c1 [Compound 952, 3-(4-(3-Fluorophenyl)-1H-benzo[d]imidazol-2-yl)-5-(pyridin-4-yl)-1H-pyrazolo[3,4-c]pyridine] |  | 9990 | 53
Fc1cccc(-c2cccc3[nH]c(-c4n[nH]c5cnc(-c6ccccn6)cc45)nc23)c1 [Compound 953, 3-(4-(3-Fluorophenyl)-1H-benzo[d]imidazol-2-yl)-5-(pyridin-2-yl)-1H-pyrazolo[3,4-c]pyridine] |  | 9 | 250
Fc1cccc(-c2cccc3[nH]c(-c4n[nH]c5cnc(-c6cnccn6)cc45)nc23)c1 [Compound 954, 3-(4-(3-Fluorophenyl)-1H-benzo[d]imidazol-2-yl)-5-(pyrazin-2-yl)-1H-pyrazolo[3,4-c]pyridine] |  | 253 | 45
CC(C)CC(=O)Nc1cncc(-c2cc3c(-c4nc5c(-c6cc(O)cc(F)c6)cccc5[nH]4)n[nH]c3cn2)c1 [Compound 1350, N-(5-(3-(4-(3-Fluoro-5-hydroxyphenyl)-1H-benzo[d]imidazol-2-yl)-1H-pyrazolo[3,4-c]pyridin-5-yl)pyridin-3-yl)-3-methylbutanamide] |  | 9 | > 10000
COc1cc(F)cc(-c2cccc3[nH]c(-c4n[nH]c5cnc(-c6cncc(NC(=O)CC(C)C)c6)cc45)nc23)c1 [Compound 1394, N-(5-(3-(4-(3-Fluoro-5-methoxyphenyl)-1H-benzo[d]imidazol-2-yl)-1H-pyrazolo[3,4-c]pyridin-5-yl)pyridin-3-yl)-3-methylbutanamide] |  | 21 | 183
